Results reported in patent US9115093B2, “Substituted bicyclic dihydropyrimidinones and their use as inhibitors of neutrophil elastase activity” (Boehringer Ingelheim International GmbH, priority 2013, dated 2015).
pEC50, pIC50: −log10 of the molar value.

What was measured:
[1] = Metabolic stability with human hepatocytes; assay type: in vitro ADME; details: human hepatocyte suspension, 1 μM, scaled with well stirred model
Protocol: Assay for the Determination of Metabolic Stability with Human Hepatocytes
The metabolic degradation of the test compound is assayed in a human hepatocyte suspension. Human hepatocytes (typically cryopreserved) are incubated in an appropriate buffer system (e.g. Dulbecco's modified eagle medium plus 3.5 μg glucagon/500 mL, 2.5 mg insulin/500 mL and 3.75 mg/500 mL hydrocortison) containing 5% species serum. Following a (typically) […] preincubation in an incubator (37° C., 10% CO2), 5 μl of test compound solution (80 μM; from 2 mM stock solution in DMSO diluted 1:25 with medium) are added into 395 μl hepatocyte suspension (cell density in the range 0.25-5*10^6 cells/mL, typically 1*10^6 cells/mL; final concentration of test compound 1 μM, final DMSO concentration […]). The cells are incubated for six hours (incubator, orbital shaker) and samples (25 μl) are taken at 0, 0.5, 1, 2, 4 and 6 hours. Samples are transferred into acetonitrile and pelleted by centrifugation (5 min). The supernatant is transferred to a new 96-deepwell plate, evaporated under nitrogen and resuspended. The decline of parent compound is analyzed by LC-MS/MS.
The intrinsic clearance CL_[…] is calculated as follows: CL_[…]=Dose/AUC=(C0/CD)/(AUD+clast/k)*1′000/60 (C0: initial concentration in the incubation [μM], CD: cell density of vital cells [10^6 cells/mL], AUD: area under the data [μM*h], clast: concentration of last data point [μM], k: slope of the regression line for parent decline [h^−1])
The calculated in vitro hepatic intrinsic clearance can be scaled up to the intrinsic in vivo hepatic clearance and used to predict hepatic in vivo blood clearance (CL) by the use of a is liver model (well stirred model): CL_[…]_INVIVO [ml/min/kg]=(CL_[…] [μL/min/10^6 cells]* hepatocellularity[10^6 cells/g liver]*liver factor[g/kg bodyweight])/1′000 CL[ml/min/kg]=CL_[…]_INVIVO [ml/min/kg]*hepatic blood flow [ml/min/kg]/(CL_[…]_INVIVO [ml/min/kg]+hepatic blood flow [ml/min/kg]) Qh[%]=CL[ml/min/kg]/hepatic blood flow[ml/min/kg]) (Hepatocellularity, human: 120*10^6 cells/g liver; lver factor, human: 25.7 g/kg bodyweight; blood flow, human: 21 ml/(min*kg))
The predicted human hepatic in vivo blood clearance (CL) of selected compounds in the metabolic stability assay described above are listed in Table 16.

[2] = target: T1, neutrophil elastase (Homo sapiens, UniProt P08246); experiment: Human Neutrophil Elastase Assay; assay type: biochemical; parameters: purchased Calbiochem 324681; details: substrate MeOSuc-Ala-Ala-Pro-Val-AMC, pH 7.5, room temperature
T1 sequence (P08246 30-247 limits assumed): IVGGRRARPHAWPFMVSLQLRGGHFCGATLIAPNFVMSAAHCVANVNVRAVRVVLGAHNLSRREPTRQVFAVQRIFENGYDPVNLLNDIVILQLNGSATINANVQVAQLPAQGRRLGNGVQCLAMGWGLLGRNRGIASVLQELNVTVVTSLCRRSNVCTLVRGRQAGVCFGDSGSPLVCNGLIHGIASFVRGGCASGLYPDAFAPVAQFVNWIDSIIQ
Procedure, shortened: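 Readout: AMC fluorescence (ex 380, em 460 nm) after 60 min room-temperature reaction with 250 nM MeOSuc-AAPV-AMC, following 15 min compound–enzyme preincubation. Buffer: Tris/NaCl pH 7.5, 0.01% BSA.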

[3] = target: T1, neutrophil elastase; experiment: Neutrophil elastase inhibitory activity in human plasma; assay type: biochemical; parameters: The stimulated blood is centrifuged to generate the neutrophil elastase enriched plasma; from tissue; host or cells: plasma from zymosan-stimulated citrated whole blood of healthy human donors; details: neutrophil elastase enriched human plasma (zymosan-stimulated blood), substrate MeOSuc-Ala-Ala-Pro-Val-AMC
Protocol: Assay for the Determination of Neutrophil Elastase Inhibitory Activity in Human Plasma
Citrated blood from human healthy donors is mixed with zymosan suspension and incubated at room temperature. This leads to the stimulation of neutrophils and the release of neutrophil elastase into the plasma. The stimulated blood is centrifuged to generate the neutrophil elastase enriched plasma.
Preparation of Zymosan Working Solution:
• single 45 ml blood sample is taken into a 50 ml tube containing citrate (3.13%, 5 mL) and the tube is gently inverted 4 times. • Immediately after blood sampling, zymosan working solution (5 mL) is added. • After the addition of zymosan working solution, the tubes are capped, mixed gently and incubated at 22° C. for 15 min on a shaker at 20 rpm. • Make 10 ml aliquots after the incubation time. • Centrifuge the 15 ml tubes at 800 g for […] at 4° C. in a Jouan centrifuge. • Harvest the plasma and make 1-5 ml aliquots. • Store the plasma at −80° C.
Various concentrations of the neutrophil elastase inhibitor are incubated with plasma. Subsequently, the enzyme activity is measured using the fluorogenic substrate MeOSuc-Ala-Ala-Pro-Val-AMC (Bachem Cat. No. 1-1270, substrate concentration: 250 μM, pH 7.5, 25 mM TRIS buffer, 250 mM NaCl) in analogous fashion as described for the human neutrophil assay. A dose response curve is generated to calculate the EC50 of the inhibitor. The analysis of the data is performed by the calculation of the percentage of fluorescence in the presence of the test compound compared to the fluorescence of the vehicle control after subtracting the background fluorescence: An inhibitor of the neutrophil elastase enzyme will give values between 100% control (no inhibition) and 0% control (complete inhibition). The human plasma shift of selected compounds can be calculated using the following equation: Human plasma shift=(EC50 in human plasma assay)/(IC50 in human neutrophil elastase assay) The EC50 values of selected compounds in the human plasma assay described above are listed in Table 14.

[4] = Metabolic stability with human liver microsomes; assay type: in vitro ADME; details: pooled human liver microsomes, 37° C., 1 mg/ml protein, NADPH
Protocol: Assay for the Determination of Metabolic Stability with Human Liver Microsomes
The metabolic degradation of the test compound is assayed at 37° C. with pooled human liver microsomes. The final incubation volume of […] per time point contains TRIS buffer pH 7.6 (0.1 M), magnesium chloride (5 mM), microsomal protein (1 mg/ml) and the test compound at a final concentration of […]. Following a short preincubation period at 37° C., the reactions are initiated by addition of beta-nicotinamide adenine dinucleotide phosphate, reduced form (NADPH, 1 mM) and terminated by transfering an aliquot into acetonitrile after different time points. Additionally, the NADPH-independent degradation is monitored in incubations without NADPH, terminated at the last time point. The rol remaining test compound after NADPH independent incubation is reflected by the parameter c(control) (metabolic stability). The quenched incubations are pelleted by centrifugation (10′000 g, 5 min) An aliquot of the supernatant is assayed by LC-MS/MS for the amount of parent compound.
The half-life (t1/2 INVITRO) is determined by the slope of the semilogarithmic plot of the concentration-time profile. The intrinsic clearance (CL_[…]) is calculated by considering the amount of protein in the incubation: CL_[…][μl/min/mg protein]=(ln 2/(half-life [min]*protein content [mg/ml]))*1′000.
The half-life (t1/2 INVITRO) values of selected compounds in the metabolic stability assay described above are listed in Table 15.

| Compound | CL (predicted human hepatic in vivo blood clearance) [1] [mL/min/kg] | pIC50 [2] | pEC50 [3] | t1/2 INVITRO [4] [h] |
| --- | --- | --- | --- | --- |
| CS(=O)(=O)c1cc(C#N)ccc1[C@H]1NC(=O)N(c2cccc(C(F)(F)F)c2)C2=C1C(=O)CCC2 (single isomer, unassigned) [Example 18A] | 0 | – | – | – |
| CS(=O)(=O)c1cc(C#N)ccc1[C@H]1NC(=O)N(c2cccc(C(F)F)c2)C2=C1C(=O)CCC2 (single isomer, unassigned) [Example 19A] | 0 | – | – | – |
| CNC(=O)N1C(=O)N(c2cccc(C(F)(F)F)c2)C2=C(C(=O)CCC2)[C@H]1c1ccc(C#N)cc1S(C)(=O)=O (single isomer, unassigned) [Example 47A] | 0 | – | – | – |
| CCS(=O)(=O)c1cc(C#N)ccc1[C@H]1NC(=O)N(c2cccc(C(F)(F)F)c2)C2=C1C(=O)CCC2 (single isomer, unassigned) [Example 54A] | 2 | – | – | – |
| CN1C(=O)N(c2cccc(C(F)(F)F)c2)C2=C(C(=O)CCC2)[C@H]1c1ccc(C#N)cc1S(C)(=O)=O [Example 48, (S)-4-(3-Methyl-2,5-dioxo-1-(3-(trifluoromethyl)phenyl)-1,2,3,4,5,6,7,8-octahydroquinazolin-4-yl)-3-(methylsulfonyl)benzonitrile] | 3 | 9.00 | 9.00 | – |
| CS(=O)(=O)c1cc(C#N)ccc1C1C2=C(CCCC2=O)N(c2cccc(C(F)(F)F)c2)C(=O)N1CCCO (stereo not drawn) [Example 58.2] | 3 | – | – | >2.17 |
| CN1C(=O)N(c2ccnc(C(F)(F)F)c2)C2=C(C(=O)CCC2)C1c1ccc(C#N)cc1S(C)(=O)=O (stereo not drawn) [Example 64, 4-(3-Methyl-2,5-dioxo-1-(2-(trifluoromethyl)pyridin-4-yl)-1,2,3,4,5,6,7,8-octahydroquinazolin-4-yl)-3-(methylsulfonyl)benzonitrile] | 0 | 8.44 | 9.00 | – |
| CS(=O)(=O)c1cc(C#N)ccc1[C@@H]1C2=C(CCCC2=O)N(c2cccc(C(F)(F)F)c2)C(=O)N1S(C)(=O)=O [Example 68, (S)-3-(Methylsulfonyl)-4-(3-(methylsulfonyl)-2,5-dioxo-1-(3-(trifluoromethyl)phenyl)-1,2,3,4,5,6,7,8-octahydroquinazolin-4-yl)benzonitrile] | 0 | > 9.00 | 9.00 | – |
| CC(C)(O)CNC(=O)N1C(=O)N(c2cccc(C(F)(F)F)c2)C2=C(C(=O)CCC2)C1c1ccc(C#N)cc1 (stereo not drawn) [Example 70.9] | 0 | – | – | >2.17 |
| CS(=O)(=O)c1cc(C#N)ccc1[C@@H]1C2=C(CCCC2=O)N(c2cccc(C(F)(F)F)c2)C(=O)N1C(N)=O [Example 75, (S)-4-(4-Cyano-2-(methylsulfonyl)phenyl)-2,5-dioxo-1-(3-(trifluoromethyl)phenyl)-1,2,5,6,7,8-hexahydroquinazoline-3(4H)-carboxamide] | – | > 9.00 | > 9.00 | – |
| CS(=O)(=O)c1cc(C#N)ccc1[C@@H]1C2=C(CCCC2=O)N(c2cccc(C(F)(F)F)c2)C(=O)N1C(=O)NC1CCOCC1 [Example 75.16] | 0 | – | – | >2.17 |
| CCNC(=O)N1C(=O)N(c2ccnc(C(F)(F)F)c2)C2=C(C(=O)CCC2)C1c1ccc(C#N)cc1 (stereo not drawn) [Example 76.2] | – | 8.92 | – | – |
| CC(C)NC(=O)N1C(=O)N(c2ccnc(C(F)(F)F)c2)C2=C(C(=O)CCC2)C1c1ccc(C#N)cc1 (stereo not drawn) [Example 76.3] | – | 8.72 | – | – |
| CC(C)(O)CNC(=O)N1C(=O)N(c2ccnc(C(F)(F)F)c2)C2=C(C(=O)CCC2)C1c1ccc(C#N)cc1 (stereo not drawn) [Example 76.4] | – | 8.26 | – | – |
